In US8338599B2, “Compounds having a potentiating effect on the activity of ethionamide and uses thereof” (priority 2006, dated 2012):
≈ marks a conversion by molar mass, not a printed value. Where “and” joins values, the source holds several entries; their conditions need not be identical. Equal values may be shown once.

Key:
EthR protein [1] = target: T1, EthR protein (Mycobacterium tuberculosis, UniProt P9WMC1); assay: Inhibition of interaction of EthR with its target DNA sequence (BIAcore); type: binding, M. tuberculosis H37Rv; conditions: for inhibition at 3 µM: compound 3 μM, EthR 540 nM, 37° C.
T1 sequence (P9WMC1 whole entry, looked up): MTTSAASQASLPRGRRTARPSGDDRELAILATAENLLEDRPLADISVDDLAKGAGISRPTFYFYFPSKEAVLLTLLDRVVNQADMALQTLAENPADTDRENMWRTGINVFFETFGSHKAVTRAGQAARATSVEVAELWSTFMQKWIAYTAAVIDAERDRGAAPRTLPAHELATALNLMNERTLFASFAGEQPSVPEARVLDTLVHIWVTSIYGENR
Procedure: a) Measurement of the Activity of the Compounds on the Inhibition of Interaction of EthR with its Target DNA Sequence
The in vitro measurements of inhibition of binding of the EthR protein to its target DNA sequence were performed on a machine of BIAcore®2000 type (AB, Uppsala, Sweden).
The chips used are CM5 chips sold by the company GE Healthcare. Both the channels of a chip were activated with a solution containing 200 mM of EDC(N-ethyl-N′-(3-[…])carbodiimide) and 50 mM of NHS (N-hydroxysuccinimide). Next, streptavidin (500 ng/μl in a solution containing 10 mM of sodium acetate (pH 3.5) was injected over 12 minutes at a flow rate of 10 μl/minute. The 106-base-pair biotinylated DNA fragment corresponding to the ethA-R intergene region was deposited on one of the two channels of the chip at a rate of 200 ng/ml in order to obtain stable binding of streptavidin corresponding to 50 RU (resonance units). This DNA fragment was obtained by PCR using the chromosomal DNA of M. tuberculosis H37Rv as matrix and O-270: 5′-[…]-3′ (SEQ ID: No. 1) and O-271: 5′-biotin-[…]-3′ (SEQ ID: No. 2). The second channel was functionalized with a 113-base-pair biotinylated DNA fragment (fragment +14 to +127 of the bla gene of E. coli PCR-amplified using the following oligonucleotides: O-343: 5′-[…]-3′ (SEQ ID: No. 3) and O-344: 5′-biotin-[…]-3′ (SEQ ID: No. 4).
Measurement of the binding of the EthR protein to the immobilized DNA was performed at 37° C. in a reference buffer containing 10 mM of Tris-HCl (pH=7.5), 200 mM of NaCl, 0.1 mM of EDTA, 1 mM of DTT and 1% of DMSO at a flow rate of 20 μl/minute. The specific interaction (SI) of EthR with the 106-base-pair double-stranded DNA sequence, expressed in resonance units, corresponds to the difference in signal observed between the two channels.
For each inhibition measurement, the compounds of the invention are dissolved in the reference buffer at a concentration of 3 μM. The compounds of the invention are then incubated in the presence of the protein (540 nM) at 37° C. for 5 minutes, and each solution is then injected onto the two channels of the chip for 3 minutes at a flow rate of 20 μl/minute. The inhibition values are calculated at the end of the injection according to the following equation: […]
in which SIEthR corresponds to the value measured without ligand and SIEthR+ligand corresponds to the value measured in the presence of to ligand.

EthR protein [2] = target: T1, EthR protein; assay: In vitro measurement of the IC50 (EthR/DNA binding, BIAcore); set-up: species or system M. tuberculosis H37Rv
Procedure: b) In Vitro Measurement of the IC50 of the Compounds of the Invention.
The in vitro measurement of this datum was performed according to the same principle as for the measurement of inhibition of the EthR/DNA binding using the BIAcore technique.
The specific interaction between EthR and the specific 106-bp DNA fragment was measured on a range of six concentrations of the compounds of the invention, this range extending from 0.11 μM to 27 μM. The IC50 values are then extrapolated from the sigmoid curves obtained.

M. bovis BCG = type: cell-based, M. bovis BCG 1173P2; conditions: from MIC of ETH alone (6 μM) and MIC of ETH with 25 μM compound
M. tuberculosis H37Rv [3] = assay: Ethionamide-potentiating effect, fluorimetric detection on Bactec MGIT 960; type: cell-based
[4] = Measurement of the solubility (PBS pH 7.4 vs methanol, LC/MS); type: physicochemical; conditions: pH 7.4, aqueous buffer, kinetic from dmso stock
Procedure: e) Measurement of the Solubility of the Compounds of the Invention
40 μl of a solution containing a compound of the invention at a concentration of 10 mM in DMSO were diluted in 1.960 ml of methanol, and another 40 μl were diluted in 1.960 ml of a PBS solution containing 675 mM of NaCl, 13.5 mM of KCl, 50 mM of Na2HPO4.2H2O and 10 mM of KH2PO4 at a pH of 7.4. The two solutions were stirred for 24 hours at room temperature, and then centrifuged for 5 minutes and filtered through 0.45 μm filters. 20 μl of each solution were then diluted in 118 μl of methanol and analyzed by liquid chromatography coupled to mass spectrometry (LC/MS). The solubility was determined by the ratio of the areas under the curve of the mass signal for the compound of the invention, according to the following equation: […]

M. tuberculosis H37Rv [5] = assay: Ethionamide-potentiating effect, RIA detection method on Bactec 460 in 12B medium; type: cell-based; conditions: with 25 μM of compound
[6] = test system: Mycobacterium tuberculosis bacilli (strain H37RV); assay: Agar gel well test of ETH potentiation in Petri dishes; type: cell-based
[7] = strain 1%, no ETH, ligand 25 μM
[8] = strain 100%, ETH 0.025 μg/mL + ligand 25 μM
[9] = strain 100%, ETH 0.05 μg/mL + ligand 25 μM
[10] = strain 100%, ETH 0.1 μg/mL + ligand 25 μM
[11] = strain 100%, ETH 0.25 μg/mL + ligand 25 μM
[12] = strain 100%, no ETH, ligand 25 μM

O=C(Cc1cccs1)N1CCC(c2nc(-c3cccs3)no2)CC1 [Compound 43, 2-thiophen-2-yl-1-[4-(3-thiophen-2-yl[1,2,4]oxadiazol-5-yl)piperid-1-yl]ethanone]
inhibition at 3 µM (EthR protein [1]): 93% | IC50 (EthR protein [2]): 520 nM | Potentiation % (M. bovis BCG): 2500% | bacterial growth-inhibiting properties of the compound alone (M. tuberculosis H37Rv [3]; 25 μM, no ETH (lines A5 and D3)): absence of bacterial growth-inhibiting properties | MIC (M. tuberculosis H37Rv [3]; Mycobacterium tuberculosis, H37RV, compound 25 μM, read-out: MIC for ETH in the presence of compound): < 0.025 µg/mL and < 0.15 µM | potentiation of the ethionamide activity (factor) (M. tuberculosis H37Rv [3]; compound 25 μM): ≥ 40 fold | potentiation of the ethionamide activity (factor) (M. tuberculosis H37Rv [3]; compound 25 μM, listed as compound 43): about 40 fold | State (M. tuberculosis H37Rv [3]; [7]): R | fluorescence reading D + 0 (M. tuberculosis H37Rv [3]; [7]): 0 | fluorescence reading D + 1 (M. tuberculosis H37Rv [3]; [7]): 0 | fluorescence reading D + 5 (first column, c6) (M. tuberculosis H37Rv [3]; [7]): 0 | fluorescence reading D + 5 (second column, c7) (M. tuberculosis H37Rv [3]; [7]): 0 | fluorescence reading D + 6 (M. tuberculosis H37Rv [3]; [7]): 0 | fluorescence reading D + 7 (first column, c9) (M. tuberculosis H37Rv [3]; [7]): 168 | fluorescence reading D + 7 (second column, c10) (M. tuberculosis H37Rv [3]; [7]): 292 | fluorescence reading J + 8 (M. tuberculosis H37Rv [3]; [7]): 400 | State (M. tuberculosis H37Rv [3]; [8]): S | fluorescence reading D + 0 (M. tuberculosis H37Rv [3]; [8]): 0 | fluorescence reading D + 1 (M. tuberculosis H37Rv [3]; [8]): 0 | fluorescence reading D + 5 (first column, c6) (M. tuberculosis H37Rv [3]; [8]): 0 | fluorescence reading D + 5 (second column, c7) (M. tuberculosis H37Rv [3]; [8]): 0 | fluorescence reading D + 6 (M. tuberculosis H37Rv [3]; [8]): 0 | fluorescence reading D + 7 (first column, c9) (M. tuberculosis H37Rv [3]; [8]): 0 | fluorescence reading D + 7 (second column, c10) (M. tuberculosis H37Rv [3]; [8]): 0 | fluorescence reading J + 8 (M. tuberculosis H37Rv [3]; [8]): 0 | State (M. tuberculosis H37Rv [3]; [9]): S | fluorescence reading D + 0 (M. tuberculosis H37Rv [3]; [9]): 0 | fluorescence reading D + 1 (M. tuberculosis H37Rv [3]; [9]): 0 | fluorescence reading D + 5 (first column, c6) (M. tuberculosis H37Rv [3]; [9]): 0 | fluorescence reading D + 5 (second column, c7) (M. tuberculosis H37Rv [3]; [9]): 0 | fluorescence reading D + 6 (M. tuberculosis H37Rv [3]; [9]): 0 | fluorescence reading D + 7 (first column, c9) (M. tuberculosis H37Rv [3]; [9]): 0 | fluorescence reading D + 7 (second column, c10) (M. tuberculosis H37Rv [3]; [9]): 0 | fluorescence reading J + 8 (M. tuberculosis H37Rv [3]; [9]): 0 | State (M. tuberculosis H37Rv [3]; [10]): S | fluorescence reading D + 0 (M. tuberculosis H37Rv [3]; [10]): 0 | fluorescence reading D + 1 (M. tuberculosis H37Rv [3]; [10]): 0 | fluorescence reading D + 5 (first column, c6) (M. tuberculosis H37Rv [3]; [10]): 0 | fluorescence reading D + 5 (second column, c7) (M. tuberculosis H37Rv [3]; [10]): 0 | fluorescence reading D + 6 (M. tuberculosis H37Rv [3]; [10]): 0 | fluorescence reading D + 7 (first column, c9) (M. tuberculosis H37Rv [3]; [10]): 0 | fluorescence reading D + 7 (second column, c10) (M. tuberculosis H37Rv [3]; [10]): 0 | fluorescence reading J + 8 (M. tuberculosis H37Rv [3]; [10]): 0 | State (M. tuberculosis H37Rv [3]; [11]): S | fluorescence reading D + 0 (M. tuberculosis H37Rv [3]; [11]): 0 | fluorescence reading D + 1 (M. tuberculosis H37Rv [3]; [11]): 0 | fluorescence reading D + 5 (first column, c6) (M. tuberculosis H37Rv [3]; [11]): 0 | fluorescence reading D + 5 (second column, c7) (M. tuberculosis H37Rv [3]; [11]): 0 | fluorescence reading D + 6 (M. tuberculosis H37Rv [3]; [11]): 0 | fluorescence reading D + 7 (first column, c9) (M. tuberculosis H37Rv [3]; [11]): 0 | fluorescence reading D + 7 (second column, c10) (M. tuberculosis H37Rv [3]; [11]): 0 | fluorescence reading J + 8 (M. tuberculosis H37Rv [3]; [11]): 0 | State (M. tuberculosis H37Rv [3]; [12]): R | fluorescence reading D + 0 (M. tuberculosis H37Rv [3]; [12]): 0 | fluorescence reading D + 1 (M. tuberculosis H37Rv [3]; [12]): 0 | fluorescence reading D + 5 (first column, c6) (M. tuberculosis H37Rv [3]; [12]): 400 | fluorescence reading D + 5 (second column, c7) (M. tuberculosis H37Rv [3]; [12]): 400 | fluorescence reading D + 6 (M. tuberculosis H37Rv [3]; [12]): 400 | fluorescence reading D + 7 (first column, c9) (M. tuberculosis H37Rv [3]; [12]): 400 | fluorescence reading D + 7 (second column, c10) (M. tuberculosis H37Rv [3]; [12]): 400 | fluorescence reading J + 8 (M. tuberculosis H37Rv [3]; [12]): 400 | solubility at 24 h [4]: 26.9 µg/mL (≈ 74.8 µM)

[N-]=[N+]=NCC(=O)N1CCC(c2nc(-c3cccs3)no2)CC1 [Compound I-1, 2-azido-1-[4-(3-thiophen-2-yl[1,2,4]oxadiazol-5-yl)piperid-1-yl]ethanone]
inhibition at 3 µM (EthR protein [1]): 33% | inhibition at 1 µM (EthR protein [1]; footnote c: DNA 20 RU, EthR 200 nM, compound 1 μM): 45% | IC50 (EthR protein [2]): 1540 nM | Potentiation % (M. bovis BCG): 2500% | ETH concentration giving the same growth-inhibiting effect (M. tuberculosis H37Rv [5]): 0.1 μg/ml and 0.6 μM

CC(C)(C)OC(=O)N1CCC(c2nc(-c3cccs3)no2)CC1 [Compound I-3, t-butyl ester of 4-(3-thiophen-2-yl-1,2,4-oxadiazol-5-yl)piperidine-1-carboxylic acid]
inhibition of mycobacterial growth around the well ([6]; 20 nmol of compound alone (hole A2), three weeks 37° C.): does not show any bacterial toxicity | inhibition of mycobacterial growth around the well ([6]; 2 μg or 4 μg of ETH + 20 nmol of compound (holes C1 and C2)): strongly inhibit the mycobacterial growth | factor of reduction of the effective dose of ETH ([6]; combination with ETH, test behind the figure not stated): about 10 fold
